Measured values: paper PMC5357725, “Global update on the susceptibility of human influenza viruses to neuraminidase inhibitors, 2014–2015” (Antiviral Research, 2016)

Experiments:
[1] = test system: B/Yamagata-lineage neuraminidase (NA); type: biochemical, influenza B/Yamagata-lineage virus
[2] = test system: B/Victoria-lineage neuraminidase (NA); type: biochemical, influenza B/Victoria-lineage virus

| SMILES | inhibition class (NI, RI, HRI) [1] | inhibition class (NI, RI, HRI) [2] |
| --- | --- | --- |
| [H]/N=C(\N)N[C@H]1C=C(C(=O)O)O[C@@H]([C@H](OC)[C@H](O)CO)[C@@H]1NC(C)=O [Laninamivir, laninamivir] | NI (key: NI: B viruses <5-fold; RI: B viruses 5- to 50-fold; HRI: B viruses >50-fold) | NI (key: NI: B viruses <5-fold; RI: B viruses 5- to 50-fold; HRI: B viruses >50-fold) |
| CC(=O)N[C@H]1[C@H]([C@H](O)[C@H](O)CO)OC(C(=O)O)=C[C@@H]1N=C(N)N [Zanamivir, zanamivir] |  | NI (key: NI: B viruses <5-fold; RI: B viruses 5- to 50-fold; HRI: B viruses >50-fold) |
